According to patent US11091494B2, “Crystal form of acalabrutinib and preparation method and use thereof” (Crystal Pharmaceutical (Suzhou) Co., Ltd., priority 2018, dated 2021):

How the values were obtained:
[1] = Compressibility (tensile strength of compressed tablet); assay type: physicochemical; conditions: about 80 mg, φ6 mm round tooling, compressed at 10 kN
Protocol: (§1) Approximately 80 mg of Form A and Form I in WO2017002095A1 were weighed into the dies of a φ6 mm round tooling, compressed at 10 kN manually, then stored in a desiccator for 24 hours until complete elastic recovery. Radial crushing force (hardness, H) was tested with an intelligent tablet hardness tester. Diameter (D) and thickness (L) were tested with a caliper. Tensile strength of the powder that with different hardness was calculated with the following formula: T=2H/πDL. Under a certain force, the greater the tensile strength, the better the compressibility.
as §1, with “Form D” for “Form A”, “manually, and” for “manually,”, “powder” for “powder that”
as §1, with “of Form F and Form” for “of Form A and Form”, “kN manually, and then stored” for “kN manually, then stored”, “tested with caliper. Tensile” for “tested with a caliper. Tensile”, “the powder with different” for “the powder that with different”
Approximately 80 mg of Form G and Form I of WO2017002095A1 were weighed into the dies of a φ6 mm round tooling, compressed at 10 kN manually, and then stored in a desiccator for 24 hours until complete elastic recovery. Radial crushing force (hardness, H)) was tested with an intelligent tablet hardness tester. Diameter (D) and thickness (L) were tested with caliper. Tensile strength of the powder with different hardness was calculated with the following formula: T=2H/πDL. Under a certain force, the greater the tensile strength, the better the compressibility.
as §1, with “of Form CS15 and Form” for “of Form A and Form”, “kN manually, and then stored” for “kN manually, then stored”, “tested with caliper. Tensile” for “tested with a caliper. Tensile”, “the powder with different” for “the powder that with different”

[2] = Hygroscopicity by dynamic vapor sorption (DVS); assay type: physicochemical; conditions: 80% RH, 25° C.; for Hygroscopicity: Chinese Pharmacopoeia 2015 definition; for Weight gain: DVS
Protocol: Dynamic vapor sorption (DVS) was applied to test hygroscopicity of Form A with about 10 mg of sample. Weight changes at each relative humidity were recorded in a cycle of 0-95%-0 RH at 25° C.±1° C.
(§2) Description and definition of hygroscopicity (general notice 9103 drug hygroscopicity test guidelines in 2015 edition of Chinese Pharmacopoeia, test at 25° C.+/−1° C., 80% RH). • deliquescent: Sufficient water is absorbed to form a liquid; • very hygroscopic: Increase in mass is equal to or greater than 15 percent; • hygroscopic: Increase in mass is less than 15 percent and equal to or greater than 2 percent; • slightly hygroscopic: Increase in mass is less than 2 percent and equal to or greater than 0.2 percent. • non hygroscopic or almost non hygroscopic: Increase in mass is less than 0.2%.
(§3) Dynamic vapor sorption (DVS) was applied to test hygroscopicity of Form F with about 10 mg of sample. Weight changes at each relative humidity were recorded in a cycle of 0-95%-0 RH at 25° C.±1° C. DVS plot is substantially as depicted in FIG. 32, and XRPD patterns before and after DVS are compared in FIG. 33.
as §2, with “C. +/−1°” for “C.+/−1°”
as §3, with “Form CS15” for “Form F”, “FIG. 38,” for “FIG. 32,”, “FIG. 39.” for “FIG. 33.”

| Tensile strength [1] [MPa] | Weight gain [2] [%] | SMILES | Hygroscopicity [2] |
| --- | --- | --- | --- |
| 1.35 | 0.99 | CC#CC(=O)N1CCC[C@H]1c1nc(-c2ccc(C(=O)Nc3ccccn3)cc2)c2c(N)nccn12 [Form A, (S)-4-(8-amino-3-(1-(but-2-ynoyl)pyrrolidin-2-yl)imidazo[1,5-a]pyrazin-1-yl)-N-(pyridin-2-yl)benzamide] | slightly hygroscopic (Increase in mass is less than 2 percent and equal to or greater than 0.2 percent) |
| 1.18 | 1.78 | CC#CC(=O)N1CCC[C@H]1c1nc(-c2ccc(C(=O)Nc3ccccn3)cc2)c2c(N)nccn12 [Form CS15, (S)-4-(8-amino-3-(1-(but-2-ynoyl)pyrrolidin-2-yl)imidazo[1,5-a]pyrazin-1-yl)-N-(pyridin-2-yl)benzamide] | slightly hygroscopic (Increase in mass is less than 2 percent and equal to or greater than 0.2 percent) |
| 1.02 | 0.09 | CC#CC(=O)N1CCC[C@H]1c1nc(-c2ccc(C(=O)Nc3ccccn3)cc2)c2c(N)nccn12 [Form F, (S)-4-(8-amino-3-(1-(but-2-ynoyl)pyrrolidin-2-yl)imidazo[1,5-a]pyrazin-1-yl)-N-(pyridin-2-yl)benzamide] | non hygroscopic or almost non hygroscopic (Increase in mass is less than 0.2%) |
| 1.62 | – | CC#CC(=O)N1CCC[C@H]1c1nc(-c2ccc(C(=O)Nc3ccccn3)cc2)c2c(N)nccn12 [Form G, (S)-4-(8-amino-3-(1-(but-2-ynoyl)pyrrolidin-2-yl)imidazo[1,5-a]pyrazin-1-yl)-N-(pyridin-2-yl)benzamide] | – |
